Earlier results in US20030180373A1, “Method for viral inactivation of hydro-alcoholic solutions” (priority 2000, published 2003).

Test system: viruses of Norwalk and Norwalk type
Details: disinfectants conventionally used; ethanol at a concentration of 75%

Row | SMILES | Effect of the disinfectant on the virus
1 | CCO [ethanol] | no effect
2 | O=CCCCC=O [glutaraldehyde] | capable of destroying the virus
3 | [Na+].[O-]Cl [bleach] | capable of destroying the virus
